According to paper PMC5730604:
pKd: −log10 of the molar value. Positions of bridges follow the written chain, without caps; N, C: chain ends. Non-standard residues stand in square brackets, D forms with d. Residues, ends and D or L forms follow the SMILES beside them. Chains are numbered I, II in the order given. *: point of attachment. PEG28 = NCCOCCOCCOCCOCCOCCOCCOCCOCCOCCOCCOCCOCCOCCOCCOCCOCCOCCOCCOCCOCCOCCOCCOCCOCCOCCOCCOCCOCCC(=O)O; Tyr(3-NO2) = N[C@@H](Cc1ccc(O)c([N+](=O)[O-])c1)C(=O)O; Hyp = O=C(O)[C@@H]1C[C@@H](O)CN1; For = O=C*

What was measured:
guinea pig skin = assay: Local skin inflammation model, immune cell infiltration; assay type: in vivo; conditions: s.c. 100 nmol
Method: (§1) Animals: Eighth Edition. W ashington, DC: The National Academies Press, 2011) were […]
(§2) Committee (LANUV AZ. 87- 51.04.2010.A278). All experiments were performed in the Institute […]
(§3) GmbH (Sulzf eld, Germany) were used. Mice were housed in individual ventilated cages under […]
(§4) humidity and a 12h dark/light cycle.
(§5) Soest, Germany) was given ad libitum. Guinea pigs were housed in conventional open cages in the same way as describe for mice. Animals were allowed to acclimatize to their […]
(§6) additional immunohistochemical stainings with antibodies against granulocytes/monocytes

mouse skin = assay: as above; assay type: in vivo; conditions: immune-deficient Balb/c nu/nu mice, s.c., 200 nmol to 500 nmol, 24 h
Method: as §1, §2, §3, §4, §5, §6

in vitro = conditions: mouse, fresh mouse serum
Method: vor t exing the sample was incubated f or 48 h. At specif ic time points, the solution was again
vortexed, a sample (95 µl) was withdra wn and subjected to ultraf iltration (Vivaspin 500, 10 k Da
cutoff; 15 min, 16,000 g). The f iltrate was put on ice while the f ilter remainder was mixed with
an equal volume of ethanol (95%), vortexed and centrifuged (5 min, 16.000 g). W ith the
resulting supernatant, this procedure was repeated. The f inal supernatant was mixed with an
equal volume of f iltrate, shock frozen in liq uid nitr og en and stored at - 80 °C until analysis. RP -
HPLC analysis was performed using an analytical C4- RP column with a gradient of 5-65%
absorption at 214 and 375 nm (specif ic absorption maximum of the nitro-tyrosine building block
The absorption peak observed at the

[1] = mice, local s.c. injection of 200 or 500 nmol, dot-blot, detection limit ~1 nM
Method: according to standard procedures. From 20 ml antiserum, 1.5 mg purified antibody were
isolated and stored in aliquots at -20 °C in PBS + 0.01% thimerosal, 0.1% BSA diluted 1:1 with
glycerin (f inal concentration 227 µg/ml).
on a nitrocellulose membrane.
concentrations between 0.5 nM and 20 nM and s amples were also spotted in triplicates. After
drying, the membrane was soaked in TBST (150 mM NaCl, 50 mM Tris-HCl, pH 7.4, 0.05%
tween), blocked for 1 h at RT with 5% nonfat dry milk in TBST. The membrane was washed 3
1:2000 in TBST, washed 3 times, incubated 1 h at RT with anti-rabbit-HRP (GE Healthcare)
diluted 1:5,000 in 5% nonf at dry milk in TBST. The membrane was f inally washed 3 times in
TBST and then incubated with ECL prime substrate (GE Healthcare). Chemiluminescent
signals were recorded in an LAS-4000 mini Image reader (Fuji). Spot intensities were
quantitated using Image J software. The calibration samples were used to prepare a linear
For the statistical analysis, mean (M) and standard deviation (SD) were calculated. T he
statistical analysis was p erf ormed with the GraphPad Prism Software, Version 5.0 (Graph Pad,
values of < 0.05 were considered signif icant.

[2] = biological target: immobilized integrin α3β1 (VLA-3) (Homo sapiens, UniProt P26006); assay: biochemical
Method: Single cycle kinetic experiments were conducted on a Biacore 3000 system using a CM5 sensor chip at 25 and 37 °C with a flow rate of 10 µl/min. After coupling of the VLA-3 receptor (R&D Systems) via standard EDC/NHS immobilization chemistry (7 min activation with EDC/NHS followed by a 7 min flush with VLA-3) in 10 mM NaOAc buffer at pH 6 containing 1 mM MnCl2, a […] solution of ethanolamine was injected for 7 min to block all amine reactive sites. Subsequently the analyte was flushed over the chip surface at a flow rate of 10 µl/min in HEPES buffered saline supplemented with 1 mM MnCl2.

SMILES: CC[C@H](C)[C@H](NC(=O)[C@H](CCSC)NC=O)C(=O)N[C@@H](Cc1ccccc1)C(=O)N[C@@H](CC(C)C)C(=O)NCC(=O)NCC(=O)N[C@@H](CCCCNC(=O)CCOCCOCCOCCOCCOCCOCCOCCOCCOCCOCCOCCOCCOCCOCCOCCOCCOCCOCCOCCOCCOCCOCCOCCOCCOCCOCCOCCOCCNC(=O)[C@H]1CSSC[C@@H](N)C(=O)N[C@H](CC(=O)O)C(=O)NCC(=O)N[C@@H](Cc2ccc(O)c([N+](=O)[O-])c2)C(=O)NCC(=O)N2C[C@H](O)C[C@H]2C(=O)N[C@@H](CC(N)=O)C(=O)N1)C(=O)N[C@@H](CCCCNC(=O)CCOCCOCCOCCOCCOCCOCCOCCOCCOCCOCCOCCOCCOCCOCCOCCOCCOCCOCCOCCOCCOCCOCCOCCOCCOCCOCCOCCOCCNC(=O)[C@H]1CSSC[C@@H](N)C(=O)N[C@H](CC(=O)O)C(=O)NCC(=O)N[C@@H](Cc2ccc(O)c([N+](=O)[O-])c2)C(=O)NCC(=O)N2C[C@H](O)C[C@H]2C(=O)N[C@@H](CC(N)=O)C(=O)N1)C(=O)O [Y9] (I: H-[dC][dD]G[Tyr(3-NO2)]G[Hyp]N[dC][PEG28] / II: H-[dC][dD]G[Tyr(3-NO2)]G[Hyp]N[dC][PEG28] / III: For-MIFLGGKK-OH; disulfide I:1-I:8, II:1-II:8; amide I:C-III:7, II:C-III:8)
- immune infiltrate (guinea pig skin; guinea pigs immune suppressed by four weekly injections of cyclophosphamide): less intense
- immune cell infiltration into the injection site (guinea pig skin; guinea pigs, 24 h): most pronounced
- immune infiltrates (mouse skin): dose-dependent increases in immune infiltrates
- metabolised at 48 h, 60 µM (in vitro): 20%
- detection of binder peptide in serum after 24 h [1]: still detected
- pKd [2]: 7.22
